This assay has as its system CTSB. Kind of assay: CTSB inhibitor study, CTSB channel fluorescence of the probes in cells. Particulars: HeLa cells, CA-074 500 nM 15 min, n = 30. In kind it is cell-based.

Molecules are shown by their SMILES.

For `CCCNC(=O)[C@H]1O[C@@H]1C(=O)N[C@H](C(=O)N1CCC[C@H]1C(=O)O)[C@@H](C)CC` [CTSB inhibitor], the “CTSB (blue) channel intensities of MSS2 and MSS3 in inhibitor-treated cells at resting state” value (then MSS2/MSS3 10 μM 5 min) is “significantly reduced”. Further, where the note is “then MSS4/MSS5 10 μM 5 min”, the “CTSB (blue) channel intensities of MSS4 and MSS5 in inhibitor-treated cells at resting state” value was “significantly reduced”.

Source of the values: publication PMC13014258 (JACS Au, 2026).
